These results are taken from patent US20090143279A1 (priority 2007, published 2009).

One test concerns OXPHOS gene expression. Format: cell-based, mouse. To be noted: for GE-HTS (composite Z-score): normalized score vs mock-treated (DMSO) wells.
In another test the test system is cytochrome c. Format: cell-based, mouse. To be noted: for cyt c (composite Z-score): normalized score vs mock-treated (DMSO) wells.
In a further test the test system is reactive oxygen species. Format: cell-based, mouse. The settings on record: for ROS (composite Z-score): normalized score vs mock-treated (DMSO) wells.
For another test, the system named is mtOXPHOS transcripts. The format is cell-based, mouse. To be noted: for mitoOX (composite Z-score): normalized score vs mock-treated (DMSO) wells.
The subject of another test is nuOXPHOS transcripts. The format is cell-based, mouse. The settings on record: for nucOX (composite Z-score): normalized score vs mock-treated (DMSO) wells.
Another test has as its system C2C12 myotubes. The settings on record: for Viability (composite Z-score): normalized score vs mock-treated (DMSO) wells.
Test [1] concerns cellular dehydrogenase activity. To be noted: for MTT (composite Z-score): normalized score vs mock-treated (DMSO) wells.
The subject of test [2] is mitochondrial membrane potential. Format: cell-based, mouse. The settings on record: for ΔΨm (composite Z-score): normalized score vs mock-treated (DMSO) wells.
Where [3] appears, read: 20 μM, composite Z-score vs DMSO.
[4] abbreviates: composite Z-score vs DMSO, Conc 20 μM.
[5] abbreviates: normalized composite Z-score vs mock-treated (DMSO) wells, Conc 20 μM.

Where two headings read alike, the source gives them in different places.

Sequence of cytochrome c (P62897 whole entry): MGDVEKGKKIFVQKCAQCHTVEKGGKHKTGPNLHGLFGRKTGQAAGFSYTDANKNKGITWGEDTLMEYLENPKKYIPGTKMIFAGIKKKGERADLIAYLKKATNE

`NC1(C(=O)O)CCCC1` [cycloleucine]: the GE-HTS in the test on OXPHOS gene expression (setting [3]) is given as −0.839. In the test on cytochrome c (setting [3]), this compound registered a cyt c of 0.822. This compound registered an ROS with reactive oxygen species (setting [3]) of 0.024. For the same compound, in the test with mtOXPHOS transcripts (setting [3]), the mitoOX is on record as −1.397. The compound further showed a nucOX in the test with nuOXPHOS transcripts (setting [3]) of −0.495. This compound also displayed a Viability with C2C12 myotubes (setting [3]) of −1.300. Also, the MTT in test [1] (setting [3]) was −1.310. In test [2] (setting [3]), this compound showed a ΔΨm of −0.765.

On to `CC(C)c1ccc2c(c1O)CC[C@H]1C3=C(CC[C@]21C)C(=O)OC3` [triptophenolide], for which, in the test on OXPHOS gene expression (Conc 20 μM), the “GE-HTS (composite Z-score)” value is on record as −0.110. The “cyt c (composite Z-score)” value with cytochrome c (Conc 20 μM) was −0.593. Also, the “ROS (composite Z-score)” value in the test on reactive oxygen species (Conc 20 μM) is on record as −1.072. Besides, in the test on mtOXPHOS transcripts (Conc 20 μM), the “mitoOX (composite Z-score)” value was −0.350. The “nucOX (composite Z-score)” value in the test with nuOXPHOS transcripts (Conc 20 μM) came to 0.038. Besides, the “Viability (composite Z-score)” value with C2C12 myotubes (Conc 20 μM) is −0.599. The “MTT (composite Z-score)” value in test [1] (Conc 20 μM) is reported as −1.067. The “ΔΨm (composite Z-score)” value in test [2] (Conc 20 μM) was 1.886.

As to mepartricin, the “GE-HTS (composite Z-score)” value with OXPHOS gene expression (Conc 20 μM) was −0.710. In addition, the “cyt c (composite Z-score)” value in the test on cytochrome c (Conc 20 μM) is 0.264. Besides, in the test with reactive oxygen species (Conc 20 μM), the “ROS (composite Z-score)” value is reported as −0.251. Further, the “mitoOX (composite Z-score)” value with mtOXPHOS transcripts (Conc 20 μM) is on record as −0.464. Moreover, in the test with nuOXPHOS transcripts (Conc 20 μM), the “nucOX (composite Z-score)” value was −0.728. Besides, in the test with C2C12 myotubes (Conc 20 μM), the “Viability (composite Z-score)” value was −0.568. The “MTT (composite Z-score)” value in test [1] (Conc 20 μM) is listed as −1.431. Moreover, the “ΔΨm (composite Z-score)” value in test [2] (Conc 20 μM) is recorded as −0.309.

In the test on OXPHOS gene expression (setting [4]), `COc1cc(O)c2c(=O)cc(-c3ccc(OC)c(-c4c(O)cc(O)c5c(=O)cc(-c6ccc(O)cc6)oc45)c3)oc2c1` [ginkgetin] returned a GE-HTS of −2.228. The compound also displayed a cyt c in the test with cytochrome c (setting [4]) of −3.027. The ROS with reactive oxygen species (setting [4]) is listed as −1.347. In the test with mtOXPHOS transcripts (setting [4]), the mitoOX was −1.101. For the same compound, the nucOX in the test with nuOXPHOS transcripts (setting [4]) is on record as −2.585. In the test on C2C12 myotubes (setting [4]), this compound registered a Viability of −1.523. The MTT in test [1] (setting [4]) is −3.855. The same compound yielded a ΔΨm in test [2] (setting [4]) of −4.324.

`C[C@@H]1CC[C@@]2(OC1)O[C@H]1C[C@H]3[C@@H]4CC=C5C[C@@H](O)CC[C@]5(C)[C@H]4CC[C@]3(C)[C@H]1[C@@H]2C` [diosgenin] registered a GE-HTS in the test with OXPHOS gene expression (setting [4]) of −0.245. Besides, the cyt c with cytochrome c (setting [4]) is listed as −0.679. This compound displayed an ROS in the test with reactive oxygen species (setting [4]) of 0.048. The compound further returned a mitoOX with mtOXPHOS transcripts (setting [4]) of 0.146. In the test on nuOXPHOS transcripts (setting [4]), this compound displayed a nucOX of −0.445. Besides, the Viability in the test with C2C12 myotubes (setting [4]) is on record as −0.044. Further, the MTT in test [1] (setting [4]) is recorded as −1.597. Also, in test [2] (setting [4]), the ΔΨm is −0.353.

On to `CC(=O)Oc1ccccc1C(=O)Oc1ccccc1C(=O)O` [acetylsalicylsalicylic acid], for which the “GE-HTS (composite Z-score)” value with OXPHOS gene expression (Conc 13.32 μM) is listed as −0.301. In addition, the “cyt c (composite Z-score)” value in the test with cytochrome c (Conc 13.32 μM) was −0.200. Further, the “ROS (composite Z-score)” value in the test on reactive oxygen species (Conc 13.32 μM) worked out at 0.399. Further, the “mitoOX (composite Z-score)” value with mtOXPHOS transcripts (Conc 13.32 μM) is reported as −0.389. Also, the “nucOX (composite Z-score)” value with nuOXPHOS transcripts (Conc 13.32 μM) was −0.249. Also, the “Viability (composite Z-score)” value in the test on C2C12 myotubes (Conc 13.32 μM) is reported as −0.840. Also, the “MTT (composite Z-score)” value in test [1] (Conc 13.32 μM) is on record as −1.621. Also, in test [2] (Conc 13.32 μM), the “ΔΨm (composite Z-score)” value is given as −0.808.

Take `C/C1=C\CC(C)(C)/C=C/CC2(C)OC2CC1` (centres unmarked) [epoxy (1,11)humulene]: the “GE-HTS (composite Z-score)” value in the test on OXPHOS gene expression (Conc 20 μM) was −1.172. For the same compound, the “cyt c (composite Z-score)” value with cytochrome c (Conc 20 μM) was determined as 0.979. In addition, in the test with reactive oxygen species (Conc 20 μM), the “ROS (composite Z-score)” value is −0.355. Further, the “mitoOX (composite Z-score)” value with mtOXPHOS transcripts (Conc 20 μM) is on record as −1.021. For the same compound, the “nucOX (composite Z-score)” value with nuOXPHOS transcripts (Conc 20 μM) is reported as −1.115. Moreover, the “Viability (composite Z-score)” value in the test on C2C12 myotubes (Conc 20 μM) was determined as 1.157. The “MTT (composite Z-score)” value in test [1] (Conc 20 μM) is listed as −0.802. For the same compound, the “ΔΨm (composite Z-score)” value in test [2] (Conc 20 μM) is recorded as −0.509.

Compound `CC(C)=CC1C(CO)C1(C)C` (centres unmarked) [chrysanthemyl alcohol] came in with a GE-HTS in the test on OXPHOS gene expression (setting [5]) of 0.456. Further, in the test with cytochrome c (setting [5]), the cyt c is on record as 0.264. The ROS with reactive oxygen species (setting [5]) is 0.345. Moreover, the mitoOX with mtOXPHOS transcripts (setting [5]) was found to be 0.331. For the same compound, the nucOX in the test on nuOXPHOS transcripts (setting [5]) is 0.495. Further, the Viability in the test on C2C12 myotubes (setting [5]) turned out to be 0.604. Moreover, the MTT in test [1] (setting [5]) is given as −0.004. Moreover, the ΔΨm in test [2] (setting [5]) was −0.734.

`CC[C@H](C=C[C@@H](C)[C@H]1CC[C@H]2[C@@H]3CCC4=CC(=O)CC[C@]4(C)[C@H]3CC[C@]12C)C(C)C` [stigmasta-4,22-dien-3-one]: the GE-HTS with OXPHOS gene expression is −0.138. The compound also had a cyt c with cytochrome c of 0.434. This compound also had an ROS with reactive oxygen species of 0.550. In the test on mtOXPHOS transcripts, this compound had a mitoOX of −0.118. The compound further returned a nucOX in the test on nuOXPHOS transcripts of −0.094. Also, in the test on C2C12 myotubes, the Viability is 0.023. This compound had an MTT in test [1] of −1.294. This compound had a ΔΨm in test [2] of −0.299.

On to pteryxin, for which the “GE-HTS (composite Z-score)” value with OXPHOS gene expression (Conc 20 μM) is −0.101. The “cyt c (composite Z-score)” value with cytochrome c (Conc 20 μM) was found to be 0.711. Further, the “ROS (composite Z-score)” value with reactive oxygen species (Conc 20 μM) worked out at 1.106. Besides, the “mitoOX (composite Z-score)” value in the test on mtOXPHOS transcripts (Conc 20 μM) is listed as −0.108. For the same compound, in the test with nuOXPHOS transcripts (Conc 20 μM), the “nucOX (composite Z-score)” value is reported as −0.097. Also, the “Viability (composite Z-score)” value in the test on C2C12 myotubes (Conc 20 μM) is recorded as −0.681. Moreover, in test [1] (Conc 20 μM), the “MTT (composite Z-score)” value is on record as −1.515. For the same compound, the “ΔΨm (composite Z-score)” value in test [2] (Conc 20 μM) is on record as 0.300.
